The supplement of paper PMC10883282
± gives the standard deviation of the averaged measurements.

Experiments:
Experiment in all cases: relative viability vs DMSO control (72 h) (fraction); higher = more viable cells
HT1080 = tested on: HT1080
Outline: (§1)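 Relative viability was measured with ATPLite and expressed as percent growth, averaged across up to triplicate wells. Sarcoma cell lines had been seeded in 384-well plates to reach 80–90% confluence, dosed after 24 h, and incubated 72 h at 37 °C, 5% CO2. All data were rescaled on a scale where 1 is full and 0 is none.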

MES-SA = tested on: MES-SA
Outline: as §1

SW684 = tested on: SW684
Outline: as §1

KHOS-NP = tested on: KHOS-NP
Outline: as §1

VA-ES-BJ = tested on: VA-ES-BJ
Outline: as §1

SK-LMS-1 = tested on: SK-LMS-1
Outline: as §1

SW872 = tested on: SW872
Outline: as §1

SK-ES-1 = tested on: SK-ES-1
Outline: as §1

G401 = tested on: G401
Outline: as §1

SW1353 = tested on: SW1353
Outline: as §1

RD-ES = tested on: RD-ES
Outline: as §1

RD = tested on: RD
Outline: as §1

CNC(=O)c1cc(Oc2ccc(NC(=O)Nc3ccc(Cl)c(C(F)(F)F)c3)cc2)ccn1 [Sorafenib]
Details | relative viability
G401, 0.00017 µM | 0.997 ± 0.026
G401, 0.00051 µM | 1 ± 0.02
G401, 0.00152 µM | 1.01 ± 0.034
G401, 0.00457 µM | 1.01 ± 0.024
G401, 0.01372 µM | 1.04 ± 0.036
G401, 0.04115 µM | 1.01 ± 0.019
G401, 0.1235 µM | 1.02 ± 0.016
G401, 0.3704 µM | 0.988 ± 0.013
G401, 1.111 µM | 0.893 ± 0.029
G401, 3.333 µM | 0.684 ± 0.034
G401, 10 µM | 0.147 ± 0.026
HT1080, 0.00017 µM | 1.06 ± 0.059
HT1080, 0.00051 µM | 1.06 ± 0.071
HT1080, 0.00152 µM | 1.1 ± 0.026
HT1080, 0.00457 µM | 1.08 ± 0.017
HT1080, 0.01372 µM | 1.07 ± 0.047
HT1080, 0.04115 µM | 1.07 ± 0.052
HT1080, 0.1235 µM | 1.08 ± 0.047
HT1080, 0.3704 µM | 1.12 ± 0.073
HT1080, 1.111 µM | 1.102 ± 0.011
HT1080, 3.333 µM | 0.94 ± 0.028
HT1080, 10 µM | 0.0932 ± 0.0023
KHOS-NP, 0.00017 µM | 1.09 ± 0.023
KHOS-NP, 0.00051 µM | 1.09 ± 0.037
KHOS-NP, 0.00152 µM | 1.1 ± 0.034
KHOS-NP, 0.00457 µM | 1.09 ± 0.02
KHOS-NP, 0.01372 µM | 1.08 ± 0.022
KHOS-NP, 0.04115 µM | 1.1 ± 0.033
KHOS-NP, 0.1235 µM | 1.103 ± 0.0053
KHOS-NP, 0.3704 µM | 1.08 ± 0.032
KHOS-NP, 1.111 µM | 0.993 ± 0.015
KHOS-NP, 3.333 µM | 0.534 ± 0.0077
KHOS-NP, 10 µM | 0.375 ± 0.036
MES-SA, 0.00017 µM | 0.928 ± 0.022
MES-SA, 0.00051 µM | 0.925 ± 0.034
MES-SA, 0.00152 µM | 0.909 ± 0.052
MES-SA, 0.00457 µM | 0.934 ± 0.062
MES-SA, 0.01372 µM | 0.923 ± 0.088
MES-SA, 0.04115 µM | 0.949 ± 0.039
MES-SA, 0.1235 µM | 1.01 ± 0.051
MES-SA, 0.3704 µM | 1.03 ± 0.039
MES-SA, 1.111 µM | 0.985 ± 0.067
MES-SA, 3.333 µM | 0.716 ± 0.021
MES-SA, 10 µM | 0.135 ± 0.0095
RD, 0.00017 µM | 1.11 ± 0.045
RD, 0.00051 µM | 1.11 ± 0.06
RD, 0.00152 µM | 1.09 ± 0.07
RD, 0.00457 µM | 1.12 ± 0.06
RD, 0.01372 µM | 1.09 ± 0.064
RD, 0.04115 µM | 1.12 ± 0.057
RD, 0.1235 µM | 1.14 ± 0.072
RD, 0.3704 µM | 1.13 ± 0.076
RD, 1.111 µM | 1.04 ± 0.047
RD, 3.333 µM | 0.9 ± 0.018
RD, 10 µM | 0.504 ± 0.064
RD-ES, 0.00017 µM | 0.972 ± 0.042
RD-ES, 0.00051 µM | 0.98 ± 0.022
RD-ES, 0.00152 µM | 0.963 ± 0.048
RD-ES, 0.00457 µM | 0.992 ± 0.025
RD-ES, 0.01372 µM | 1 ± 0.022
RD-ES, 0.04115 µM | 0.987 ± 0.05
RD-ES, 0.1235 µM | 0.987 ± 0.036
RD-ES, 0.3704 µM | 0.992 ± 0.031
RD-ES, 1.111 µM | 0.994 ± 0.03
RD-ES, 3.333 µM | 0.903 ± 0.04
RD-ES, 10 µM | 0.274 ± 0.027
SK-ES-1, 0.00017 µM | 0.978 ± 0.077
SK-ES-1, 0.00051 µM | 1.01 ± 0.0071
SK-ES-1, 0.00152 µM | 1.04 ± 0.035
SK-ES-1, 0.00457 µM | 1.05 ± 0.027
SK-ES-1, 0.01372 µM | 1.07 ± 0.016
SK-ES-1, 0.04115 µM | 1.01 ± 0.027
SK-ES-1, 0.1235 µM | 1.06 ± 0.034
SK-ES-1, 0.3704 µM | 1.07 ± 0.031
SK-ES-1, 1.111 µM | 0.96 ± 0.065
SK-ES-1, 3.333 µM | 0.8855 ± 0.0053
SK-ES-1, 10 µM | 0.252 ± 0.0099
SK-LMS-1, 0.00017 µM | 1.1 ± 0.046
SK-LMS-1, 0.00051 µM | 1.07 ± 0.025
SK-LMS-1, 0.00152 µM | 1.11 ± 0.06
SK-LMS-1, 0.00457 µM | 1.1 ± 0.034
SK-LMS-1, 0.01372 µM | 1.1 ± 0.026
SK-LMS-1, 0.04115 µM | 1.12 ± 0.064
SK-LMS-1, 0.1235 µM | 1.05 ± 0.055
SK-LMS-1, 0.3704 µM | 1.09 ± 0.043
SK-LMS-1, 1.111 µM | 1.07 ± 0.04
SK-LMS-1, 3.333 µM | 0.713 ± 0.029
SK-LMS-1, 10 µM | 0.0735 ± 0.0075
SW684, 0.00017 µM | 1.2 ± 0.047
SW684, 0.00051 µM | 1.2 ± 0.023
SW684, 0.00152 µM | 1.18 ± 0.067
SW684, 0.00457 µM | 1.19 ± 0.062
SW684, 0.01372 µM | 1.16 ± 0.056
SW684, 0.04115 µM | 1.2 ± 0.044
SW684, 0.1235 µM | 1.23 ± 0.017
SW684, 0.3704 µM | 1.27 ± 0.019
SW684, 1.111 µM | 1.32 ± 0.051
SW684, 3.333 µM | 0.938 ± 0.013
SW684, 10 µM | 0.276 ± 0.013
SW872, 0.00017 µM | 1.09 ± 0.072
SW872, 0.00051 µM | 1.09 ± 0.056
SW872, 0.00152 µM | 1.05 ± 0.043
SW872, 0.00457 µM | 1.06 ± 0.073
SW872, 0.01372 µM | 1.09 ± 0.11
SW872, 0.04115 µM | 1.09 ± 0.081
SW872, 0.1235 µM | 1.07 ± 0.049
SW872, 0.3704 µM | 1.09 ± 0.052
SW872, 1.111 µM | 1.07 ± 0.059
SW872, 3.333 µM | 1.02 ± 0.09
SW872, 10 µM | 0.553 ± 0.019
SW1353, 0.00017 µM | 0.98 ± 0.062
SW1353, 0.00051 µM | 1.02 ± 0.019
SW1353, 0.00152 µM | 1.01 ± 0.048
SW1353, 0.00457 µM | 1.01 ± 0.021
SW1353, 0.01372 µM | 1.01 ± 0.013
SW1353, 0.04115 µM | 1.01 ± 0.034
SW1353, 0.1235 µM | 0.992 ± 0.074
SW1353, 0.3704 µM | 1.02 ± 0.049
SW1353, 1.111 µM | 1.04 ± 0.022
SW1353, 3.333 µM | 0.85 ± 0.027
SW1353, 10 µM | 0.39 ± 0.0064
VA-ES-BJ, 0.00017 µM | 1.04 ± 0.022
VA-ES-BJ, 0.00051 µM | 1.07 ± 0.027
VA-ES-BJ, 0.00152 µM | 1.07 ± 0.022
VA-ES-BJ, 0.00457 µM | 1.06 ± 0.013
VA-ES-BJ, 0.01372 µM | 1.07 ± 0.028
VA-ES-BJ, 0.04115 µM | 1.09 ± 0.048
VA-ES-BJ, 0.1235 µM | 1.11 ± 0.03
VA-ES-BJ, 0.3704 µM | 1.143 ± 0.011
VA-ES-BJ, 1.111 µM | 1.15 ± 0.017
VA-ES-BJ, 3.333 µM | 1.14 ± 0.051
VA-ES-BJ, 10 µM | 0.436 ± 0.0078
